Results reported in patent publication US20240067655A1 (NEURON23, INC., priority 2020, published 2024).

Columns and labels:
[1] = target: T1, wt human LRRK2, catalytic site (Homo sapiens, UniProt Q5S007); assay: TR-FRET LanthaScreen Eu Kinase Binding Assay, LRRK2 wt (Example 72); conditions: Example 72 text; one statement for LRRK2 (Wt) and LRRK2 (G2019); read-out: IC50, Inhibitory Activity Toward LRRK2 (Wt)
T1 construct: wt human LRRK2, catalytic site; purchased ThermoFisher/USA
Description: (§1) The compounds in Tables 5-6 were tested for their inhibitory effect on a set of kinases according to the following procedures.
(§2) The basic protocol for TR-FRET LanthaScreen Eu Kinase Binding Assay inhibitor studies were performed as follows. LanthaScreen Kinase Binding Assays (ThermoFisher/USA) to evaluate inhibitors were performed by addition of 5 μl of test compound in corresponding DMSO dilutions/5 μl of kinase/antibody mixture, 5 μl of tracer into 384 well small volume plates. After incubation for 1 hour at room temperature, plates were read. Data analysis of emission ratios was according to LanthaScreen Eu Kinase Binding Assay protocol.
(§3) Kinase and assay components were adjusted to final concentrations according to the kit protocol. For LRRK2: 5 nM wt human LRRK2, catalytic site, or G2019S human LRRK2, catalytic site (ThermoFisher/USA), 2 nM Eu-Anti-GST Antibody, 10 nM Kinase Tracer 236 in 1× Kinase Buffer A. For NUAK1: 8 nM wt human NUAK1, full length (ThermoFisher/USA), 2 nM Eu-Anti-His Antibody, 5 nM Kinase Tracer 236 in 1× Kinase Buffer A.

[2] = target: T2, G2019S human LRRK2, catalytic site (Homo sapiens, UniProt Q5S007, G2019S); assay: TR-FRET LanthaScreen Eu Kinase Binding Assay, LRRK2 G2019S (Example 72); conditions: Example 72 text; one statement for LRRK2 (Wt) and LRRK2 (G2019); read-out: IC50, Inhibitory Activity Toward LRRK2 (G2019)
T2 construct: G2019S human LRRK2, catalytic site; purchased ThermoFisher/USA
T2 sequence (Q5S007 1879-2138 G2019S limits assumed): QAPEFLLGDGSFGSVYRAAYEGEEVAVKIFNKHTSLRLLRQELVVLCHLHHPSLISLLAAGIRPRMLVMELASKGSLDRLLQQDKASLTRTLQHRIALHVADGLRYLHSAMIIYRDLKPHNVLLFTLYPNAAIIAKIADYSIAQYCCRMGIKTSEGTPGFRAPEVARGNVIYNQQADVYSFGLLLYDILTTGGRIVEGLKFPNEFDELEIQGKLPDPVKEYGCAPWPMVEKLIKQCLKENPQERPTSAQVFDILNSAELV
Description: as §1, §2, §3

[3] = target: T3, wt human TYK2, catalytic site (Homo sapiens, UniProt P29597); assay: HTRF KinEASE assay, TYK2 (Example 72); assay type: biochemical; conditions: Example 72 text; read-out: IC50, Inhibitory Activity Toward TYK2
T3 construct: wt human TYK2, catalytic site; purchased SignalChem/CAN
T3 sequence (P29597 897-1176 limits assumed): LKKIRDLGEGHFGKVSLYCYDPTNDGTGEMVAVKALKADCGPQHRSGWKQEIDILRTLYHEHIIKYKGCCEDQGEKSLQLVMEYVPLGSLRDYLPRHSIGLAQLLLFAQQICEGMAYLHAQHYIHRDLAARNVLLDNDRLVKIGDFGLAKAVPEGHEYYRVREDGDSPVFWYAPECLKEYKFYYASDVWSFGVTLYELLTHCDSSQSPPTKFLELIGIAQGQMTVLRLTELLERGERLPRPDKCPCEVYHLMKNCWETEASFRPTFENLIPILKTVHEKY
Description: as §1
Basic protocol for HTRF KinEASE assay (Cisbio/FRA) inhibitor studies involved two steps:
Enzymatic step: Addition of 4 μl of test compound in corresponding DMSO dilutions, 4 μl of kinase/substrate mixture, 2 μl of ATP into 384 well small volume plates. Incubation for at least 30 minutes at room temperature.
Detection step: Addition of 5 μl antibody and 5 μl streptavidin-XL665, read plate after 60 minutes. Data analysis of emission ratios according to KinEASE assay protocol.
Kinase and assay components were adjusted to final concentrations according to the kit protocol. For TYK2: 2 nM wt human TYK2, catalytic site (SignalChem/CAN), 1 μM HTRF KinEASE-TK Substrate-biotin, 1 μM ATP in 1× Kinase Buffer

[4] = target: T4, wt human NUAK1, full length (Homo sapiens, UniProt O60285); assay: TR-FRET LanthaScreen Eu Kinase Binding Assay, NUAK1 (Example 72); conditions: Example 72 text; read-out: IC50, Inhibitory Activity Toward NUAK1
T4 construct: 8 nM wt human NUAK1, full length (ThermoFisher/USA); purchased ThermoFisher/USA
T4 sequence (O60285 1-661): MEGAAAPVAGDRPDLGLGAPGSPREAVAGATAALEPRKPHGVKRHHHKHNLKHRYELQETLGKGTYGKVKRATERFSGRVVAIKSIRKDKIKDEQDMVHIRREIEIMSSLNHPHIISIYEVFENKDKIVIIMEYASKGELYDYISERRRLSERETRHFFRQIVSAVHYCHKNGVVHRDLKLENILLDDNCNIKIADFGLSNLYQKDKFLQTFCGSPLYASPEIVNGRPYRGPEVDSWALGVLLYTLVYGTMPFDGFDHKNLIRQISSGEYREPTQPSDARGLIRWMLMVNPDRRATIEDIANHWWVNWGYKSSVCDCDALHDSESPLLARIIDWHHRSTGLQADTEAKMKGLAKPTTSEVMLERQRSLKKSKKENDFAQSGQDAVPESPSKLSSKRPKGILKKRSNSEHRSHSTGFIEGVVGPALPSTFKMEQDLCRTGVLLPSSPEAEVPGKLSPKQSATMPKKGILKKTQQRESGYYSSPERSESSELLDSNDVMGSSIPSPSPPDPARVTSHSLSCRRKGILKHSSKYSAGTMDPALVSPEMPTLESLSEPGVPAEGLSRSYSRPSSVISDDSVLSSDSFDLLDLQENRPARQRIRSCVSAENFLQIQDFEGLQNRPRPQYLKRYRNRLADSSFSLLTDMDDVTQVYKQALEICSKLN
Description: as §1, §2, §3

T1 sequence (Q5S007 1879-2138 limits assumed): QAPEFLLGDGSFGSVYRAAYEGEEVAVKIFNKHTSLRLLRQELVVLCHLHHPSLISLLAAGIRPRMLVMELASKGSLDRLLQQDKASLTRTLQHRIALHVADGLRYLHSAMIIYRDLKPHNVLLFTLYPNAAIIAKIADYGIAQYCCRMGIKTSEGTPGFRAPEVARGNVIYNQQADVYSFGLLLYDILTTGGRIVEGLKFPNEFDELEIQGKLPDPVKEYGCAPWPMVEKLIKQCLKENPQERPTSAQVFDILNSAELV

Compound	IC50 [1] [nM]	IC50 [2] [nM]	IC50 [3] [nM]	IC50 [4] [nM]
Fc1cc2c3c(cnn3C(c3c(F)cccc3F)=Nc3c[nH]nc3-2)c1 [Compound 314, 4-(2,6-difluorophenyl)-10-fluoro-7H-pyrazolo[4′,3′:4,5][1,3]diazepino[6,7,1-hi]indazole]	100 to 1000	100 to 1000	100 to 1000	
Fc1cccc(F)c1C1=Nc2cn[nH]c2-c2cncc3ncn1c23 [Compound 303, 3-(2,6-difluorophenyl)-7H-1,2a,4,6,7,9-hexaazabenzo[cd]cyclopenta[f]azulene]	100 to 1000	100 to 1000	100 to 1000	10 to 100
Fc1ccc(F)c(C2=Nc3c[nH]nc3-c3cccc4cnn2c34)c1 [Compound 315, 4-(2,5-difluorophenyl)-8H-pyrazolo[4′,3′:4,5][1,3]diazepino[6,7,1-hi]indazole]	< 10	< 10		10 to 100
Fc1cccc(F)c1C1=Nc2cn[nH]c2-c2nnc3cccn1c2-3 [Compound 307, 9-(2,6-difluorophenyl)-3H-2,3,4,5,8a,10-hexaazabenzo[cd]cyclopenta[h]azulene]	10 to 100	10 to 100		10 to 100
Fc1cccc(F)c1C1=Nc2cn[nH]c2-c2cnn3c2N1CCC3 [Compound 308, 9-(2,6-difluorophenyl)-3,6,7,8-tetrahydro-2,3,5,5a,8a,10-hexaazabenzo[cd]cyclopenta[h]azulene]	< 10	< 10		10 to 100
